Test results as given in ChEMBL document CHEMBL3885881, “DrugMatrix”.

Species on record: Rattus norvegicus
Assay: DrugMatrix - Regimen: Daily Repeat
Format: toxicity, organism-based, Sprague-Dawley
Set-up: regimen Daily Repeat, gender Male, age 6-8 weeks
Settings: in vivo, po, 47 mg/kg, route oral GAVAGE, dose level Low, […]; for ABSOLUTE BASOPHIL / ABSOLUTE EOSINOPHIL / ABSOLUTE LYMPHOCYTE / ABSOLUTE MONOCYTE / ABSOLUTE SEGMENTED NEUTROPHIL / BASOPHIL / EOSINOPHIL / ERYTHROCYTE COUNT / HEMATOCRIT / HEMOGLOBIN / LEUKOCYTE COUNT / LYMPHOCYTE / MEAN CORPUSCULAR HEMOGLOBIN / MEAN CORPUSCULAR HEMOGLOBIN CONCENTRATION / MEAN CORPUSCULAR VOLUME / MONOCYTE / NEUTROPHIL / NUCLEATED RED BLOOD CELLS / PLATELET COUNT: tissue Blood; for ALANINE AMINOTRANSFERASE / ALBUMIN / ALKALINE PHOSPHATASE / ASPARTATE AMINOTRANSFERASE / BLOOD UREA NITROGEN / CARBON DIOXIDE / CHLORIDE / CHOLESTEROL / CREATINE PHOSPHOKINASE / CREATININE / GLUCOSE / LACTATE DEHYDROGENASE / LIPASE / PHOSPHORUS / POTASSIUM / SODIUM / TOTAL BILIRUBIN / TOTAL PROTEIN / URIC ACID: tissue Plasma

## Cc1cn([C@H]2C[C@H](N=[N+]=[N-])[C@@H](CO)O2)c(=O)[nH]c1=O [ZIDOVUDINE]
72 h, time 3 day
  ABSOLUTE BASOPHIL: 0 CELLS/uL
  ABSOLUTE EOSINOPHIL: 0 CELLS/uL
  ABSOLUTE LYMPHOCYTE: 11829.67 CELLS/uL
  ABSOLUTE MONOCYTE: 82 CELLS/uL
  ABSOLUTE SEGMENTED NEUTROPHIL: 955 CELLS/uL
  BASOPHIL: 0%
  EOSINOPHIL: 0%
  ERYTHROCYTE COUNT: 5.26 x10E6/uL
  HEMATOCRIT: 33.23%
  HEMOGLOBIN: 13.43 G/DL
  LEUKOCYTE COUNT: 12.87 x10E3/uL
  LYMPHOCYTE: 92%
  MEAN CORPUSCULAR HEMOGLOBIN: 25.67 pg
  MEAN CORPUSCULAR HEMOGLOBIN CONCENTRATION: 40.47 G/DL
  MEAN CORPUSCULAR VOLUME: 63.37 fL
  MONOCYTE: 0.67%
  NEUTROPHIL: 7.33%
  NUCLEATED RED BLOOD CELLS: 0 /100WBC
  PLATELET COUNT: 1228 x10E3/uL
  ALANINE AMINOTRANSFERASE: 73.67 u/L
  ALBUMIN: 4.1 G/DL
  ALKALINE PHOSPHATASE: 470 u/L
  ASPARTATE AMINOTRANSFERASE: 86 u/L
  BLOOD UREA NITROGEN: 12 mg/dL
  CARBON DIOXIDE: 32.67 mmol/L
  CHLORIDE: 102.33 MEQ/L
  CHOLESTEROL: 68 mg/dL
  CREATINE PHOSPHOKINASE: 377 u/L
  CREATININE: 0.14 mg/dL
  GLUCOSE: 156.33 mg/dL
  LACTATE DEHYDROGENASE: 235.67 u/L
  LIPASE: 11.67 u/L
  PHOSPHORUS: 10.87 mg/dL
  POTASSIUM: 6.46 MEQ/L
  SODIUM: 141.6 MEQ/L
  TOTAL BILIRUBIN: 0.17 mg/dL
  TOTAL PROTEIN: 5.57 G/DL
  URIC ACID: 1.57 mg/dL
120 h, time 5 day
  ABSOLUTE BASOPHIL: 0 CELLS/uL
  ABSOLUTE EOSINOPHIL: 0 CELLS/uL
  ABSOLUTE LYMPHOCYTE: 15346 CELLS/uL
  ABSOLUTE MONOCYTE: 401.67 CELLS/uL
  ABSOLUTE SEGMENTED NEUTROPHIL: 2019 CELLS/uL
  BASOPHIL: 0%
  EOSINOPHIL: 0%
  ERYTHROCYTE COUNT: 5.55 x10E6/uL
  HEMATOCRIT: 35.13%
  HEMOGLOBIN: 14.03 G/DL
  LEUKOCYTE COUNT: 17.77 x10E3/uL
  LYMPHOCYTE: 86%
  MEAN CORPUSCULAR HEMOGLOBIN: 25.3 pg
  MEAN CORPUSCULAR HEMOGLOBIN CONCENTRATION: 39.97 G/DL
  MEAN CORPUSCULAR VOLUME: 63.37 fL
  MONOCYTE: 2.33%
  NEUTROPHIL: 11.67%
  NUCLEATED RED BLOOD CELLS: 0 /100WBC
  PLATELET COUNT: 1138.33 x10E3/uL
  ALANINE AMINOTRANSFERASE: 62 u/L
  ALBUMIN: 4.3 G/DL
  ALKALINE PHOSPHATASE: 450.33 u/L
  ASPARTATE AMINOTRANSFERASE: 81.67 u/L
  BLOOD UREA NITROGEN: 12.33 mg/dL
  CARBON DIOXIDE: 30.67 mmol/L
  CHLORIDE: 101 MEQ/L
  CHOLESTEROL: 72.67 mg/dL
  CREATINE PHOSPHOKINASE: 317 u/L
  CREATININE: 0.25 mg/dL
  GLUCOSE: 162.33 mg/dL
  LACTATE DEHYDROGENASE: 138 u/L
  LIPASE: 11 u/L
  PHOSPHORUS: 11.9 mg/dL
  POTASSIUM: 6.72 MEQ/L
  SODIUM: 143.47 MEQ/L
  TOTAL BILIRUBIN: 0.2 mg/dL
  TOTAL PROTEIN: 5.87 G/DL
  URIC ACID: 1.9 mg/dL
